# T1: 30 kDa exonuclease (Homo sapiens, UniProt Q9NSU2)
# T1 construct: endogenous in cells; host or cells: human myeloblastic leukemia cells (myeloblasts)
# T1 sequence (Q9NSU2 1-314): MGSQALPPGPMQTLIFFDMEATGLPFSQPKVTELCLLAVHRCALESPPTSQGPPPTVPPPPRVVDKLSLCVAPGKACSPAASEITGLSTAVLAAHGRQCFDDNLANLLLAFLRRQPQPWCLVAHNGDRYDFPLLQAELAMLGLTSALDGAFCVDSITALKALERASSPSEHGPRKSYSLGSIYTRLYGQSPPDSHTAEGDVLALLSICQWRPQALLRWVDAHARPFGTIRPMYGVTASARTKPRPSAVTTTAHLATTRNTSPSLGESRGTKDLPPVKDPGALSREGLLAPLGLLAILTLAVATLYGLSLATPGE
# Tests used:
# HL-60 cells [1] = test: intracellular accumulation of TIMP by HPLC; assay type: cell-based; conditions: HL-60 cells pretreated with 50 or 100 μM 6-MP
# Experimental: (§1) HL-60 cells were incubated with 6-mercaptopurine (6-MP) to allow intracellular levels of thioinosine monophosphate (TIMP) to accumulate. […] Cytoplasmic 6-MP is converted to an active nucleotide metabolite TIMP by the action of hypoxanthine phosphoribosyltransferase (HPRT). […] Intracellular accumulation of TIMP was determined by HPLC [Zimm, et al., Cancer Res. 45:4156-4161 (1985)]. Upon addition of araC, the amount of araC incorporated into DNA increased and total DNA synthesis decreased in cells pretreated with 6-MP relative to untreated cells. At peak intracellular levels of TIMP, araC incorporation into DNA relative to total DNA synthesis was 20-fold greater in the 6-MP treated cells.
# HL-60 cells [2] = test: intracellular araCTP quantified by HPLC in 6-MP treated cells; assay type: cell-based; conditions: cells treated with 6-MP up to twelve hours, harvested one hour after addition of araC
# Experimental: The increased incorporation of araC into the DNA was not the result of increased accumulation of araC in the 6-MP treated cells. Cells were treated with 6-MP for varying times for up to twelve hours followed by incubation with […]. At time points up to twelve hours, cells were treated with araC and harvested one hour after addition of araC. The nucleotides were then separated using HPLC, and intracellular araCTP was quantified.
# (§2) Logarithmically growing cultures of HL-60 cells are incubated with 6-MP for varying times. The cultures are divided into two groups. The first group is treated with 1 μM ^3H-araC for 1 hour to measure araC in DNA. The second group is treated with ^3H-thymidine and 1 μM unlabeled araC for 1 hour to measure total DNA synthesis. Cells are pelleted, washed with PBS, and ^3H-araC or ^3H-thymidine in acid insoluble material is determined by scintillation counting. To measure araCTP in HL-60 cells, 6-MP treated samples are incubated with 1 μM ^3H-araC. Cells are pelleted and washed with PBS. The acid soluble nucleotides are collected and separated by HPLC (Partisil 10 SAX, Whatman). The fraction containing ^3HaraCTP is quantified by scintillation counting.
# HL-60 cells [3] = test: araC incorporation into DNA and total DNA synthesis in 6-MP pretreated HL-60 cells; assay type: cell-based
# Experimental: as §1, §2
# murine leukemia cells = murine leukemia cells treated for twelve hours with 6-MP; cited from earlier work
# HL-60 cells [4] = test: cell killing by growth curves and clonogenic assays of treated cells; assay type: cell-based; conditions: 6-MP pretreatment plus araC
# [5] = system: exonuclease activity specifically associated with DNA polymerase δ; conditions: Lee, et al. Biochemistry 19:215-219 (1980); cited from earlier work
# 30 kDa exonuclease = molecular target: T1, 30 kDa exonuclease; test: in vitro enzyme inhibition of the 30 kDa 3'-5' exonuclease; assay type: biochemical; conditions: 30 kDa exonuclease purified from myeloblastic leukemia cells
# Experimental: In order to assess the effect of intracellular TIMP that contributed to increased araC incorporation, exonuclease activity was partially purified from myeloblastic leukemia cells and in vitro enzyme inhibition studies ware carried out with TIMP. The majority of the cellular exonuclease activity was found in a band migrating on SDS-PAGE with a predicted molecular weight of 30 kDa.
# Inhibition studies were also carried out with the purified 30 kD exonuclease and either TIMP or dGMP.
# Useful methods in the practice of this example include the following: DNA pol δ may be purified from human myeloblasts using the methods of Syvaoja et al. (Proc. Natl. Acad. Sci., USA 87:6664-6668, 1990) through step 5. The specific activity of the DNA pol δ preparation is preferably about 3,500 units/mg. A unit of DNA pol δ catalyzes the incorporation of 1 nmol of total nucleotide per hour at 37° C. using 100 μM poly(dAdT) as template and reaction conditions as described by Lewis et al. (Biochemistry 33:14620-14624, 1994). […]
# To measure the 3′-5′ exonuclease activity, a 23 mer is labeled with ^32P at the 5′ position and used in reactions as ssDNA. […] Samples are dried, resuspended in 5 μl 95% formamide, and analyzed by electrophoresis through 15% polyacrylamide sequencing gels. Radiolabeled bands are visualized and quantified by phosphorimagery (Molecular Dynamics). […]
# [6] = system: 30 kDa enzyme with 3'-5' exonuclease activity; test: removal of 3' terminal araC from template primer by the 30 kDa exonuclease; assay type: biochemical, human, bovine; conditions: araC at the 3' terminus of the template primer
# Description: For protein purification from bovine thymus, an additional step using phenyl SUPEROSE was employed. In order to detect exonuclease activity in the cell extract, a biochemical assay was developed using DNA polymerase a and an oligonucleotide template primer with an araC analog at the 3′ terminus. In this assay, incorporation of radiolabeled nucleotides into the araC-template primer by the polymerase first requires that the araC analog be removed by a 3′-5′ exonuclease.
# [7] = system: 32P-labeled 23 nucleotide oligomer; test: exonuclease activity of protein extracts of transformed BL21/DE3 cells; assay type: biochemical; conditions: protein extract of BL21/DE3 cells, IPTG induced
# Experimental: To measure the 3′-5′ exonuclease activity, a 23 mer is labeled with ^32P at the 5′ position and used in reactions as ssDNA. Reaction mixtures (10 μl) are prepared containing 20 mM Tris-HCl, pH 7.5, 10 mM MgCl2, 2 mM DTT, 100 μg/mL BSA, 100 nM 23 mer, and 1 μl of the appropriate enzyme dilution. Incubation is 20 minutes at 37° C., and reactions are stopped by addition of 30 μl 95% ethanol. Samples are dried, resuspended in 5 μl 95% formamide, and analyzed by electrophoresis through 15% polyacrylamide sequencing gels. Radiolabeled bands are visualized and quantified by phosphorimagery (Molecular Dynamics). One unit of exonuclease is the amount of enzyme needed to degrade 1 pmol of 3′ termini in 1 min at 37° C.
# The pTREX1h/T7 plasmid was electroporated into BL21/DE3 cells, which were grown at 23° C. to a density of OD595 0.3. Isopropylthiogalactopyranoside (IPTG) was added to induce overexpression and incubation of the cells was continued overnight. Protein extracts were prepared from the cells and enzyme activity assayed using a ^32P-labeled 23 nucleotide oligomer.
# Template DNA was the mouse EST 480859. PCR was carried out as described for TREX1h and the resulting amplification product was subcloned as for TREX1h. The resulting expression plasmid was designated pTREX2m/T7 and expression of the encoded gene was carried out as described for TREX1h. […]
# [8] = HL-60 cells pretreated with 6-MP relative to untreated cells, upon addition of araC
molecule,measurement,setting,value
"Sc1ncnc2nc[nH]c12 [6-MP, 6-mercaptopurine]",time of peak intracellular TIMP concentration,HL-60 cells [1],approximately twelve
same,variation of intracellular araCTP levels during the time course,HL-60 cells [2],less than two-fold
same,amount of araC incorporated into DNA,HL-60 cells [3]; [8],increased
same,total DNA synthesis,HL-60 cells [3]; [8],decreased
same,"araC incorporation into DNA relative to total DNA synthesis, 6-MP treated vs untreated cells","HL-60 cells [3]; HL-60 cells pretreated with 6-MP, at peak intracellular levels of TIMP, then araC",20 fold
same,intracellular level of TIMP,murine leukemia cells,approximately 180 μM
same,cell killing,HL-60 cells [4],increase in cell killing
"O=P(O)(O)OC[C@H]1O[C@@H](n2cnc3c(S)ncnc32)[C@H](O)[C@@H]1O [TIMP, thioinosine monophosphate]",inhibition of DNA polymerase δ associated exonuclease activity,[5],inhibit exonuclease activity
same,Ki,30 kDa exonuclease,17 µM
"Nc1ccn([C@@H]2O[C@H](CO)[C@@H](O)[C@@H]2O)c(=O)n1 [araC, 1-β-D-arabinofuranosylcytosine]",apparent rate of araC removal by the exonuclease,[6],approximately the same rate as the rate of deoxynucleotide monophosphate removal
Nc1nc2c(ncn2[C@H]2C[C@H](O)[C@@H](COP(=O)(O)O)O2)c(=O)[nH]1 [dGMP],Ki,30 kDa exonuclease,56 µM
"TREX1h: human 3'-5' exonuclease polypeptide, SEQ ID NO:2, expressed from pTREX1h/T7 (protein, HOMO SAPIENS) MGSQALPPGPMQTLIFFDMEATGLPFSQPKVTELCLLAVHRCALESPPTSQGPPPTVPPPPRVVDKLSLCVAPGKACSPAASEITGLSTAVLAAHGRQCFDDNLANLLLAFLRRQPQPWCLVAHNGDRYDFPLLQAELAMLGLTSALDGAFCVDSITALKALERASSPSEHGPRKSYSLGSIYTRLYGQSPPDSHTAEGDVLALLSICQWRPQALLRWVDAHARPFGTIRPMYGVTASARTKPRPSAVTTTAHLATTRNTSPSLGESRGTKDLPPVKDPGALSREGLLAPLGLLAILTLAVATLYGLSLATPGE",exonuclease activity versus control cells with parental vector only,[7],30 fold
"TREX2m: murine 3'-5' exonuclease polypeptide, SEQ ID NO:32, expressed from pTREX2m/T7 (protein, listed as Mus musculus) MSEPPRAETFVFLDLEATGLPNMDPEIAEISLFAVHRSSLENPERDDSGSLVLPRVLDKLTLCMCPERPFTAKASEITGLSSESLMHCGKAGFNGAVVRTLQGFLSRQEGPICLVAHNGFDYDFPLLCTELQRLGAHLPQDTVCLDTLPALRGLDRAHSHGTRAQGRKSYSLASLFHRYFQAEPSAAHSAEGDVHTLLLIFLHRAPELLAWADEQARSWAHIEPMYVPPDGPSLEA",exonuclease activity versus control cells with parental vector only,[7],30 fold
